Here are results for 18 compounds from PubChem BioAssay AID248 (DTP/NCI, 2004).

Inconclusive results and toxic doses are left out.

The subject of the assay is L1210 leukemia ip in BDF1 mice, survival T/C. Briefly: NCI In Vivo Anticancer Drug Screen. Data for tumor model L1210 Leukemia (intraperitoneal) in B6D2F1 (BDF1) mice. To be noted: endpoint: mean survival time, higher = longer survival. The gist of the method: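 Survival endpoint. Drug-treated group vs vehicle group, expressed as T divided by C. Tumor passaged by transplantation.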

Where [1] appears, read: dose: 100.0 mg/kg/injection, schedule: Q01DX001 (ip), vehicle: Klucel (hydroxypropylcellulose) (HPC).
[2] abbreviates: dose: 100.0 mg/kg/injection, schedule: Q04DX003 (ip), vehicle: Klucel (hydroxypropylcellulose) (HPC).
[3] abbreviates: dose: 200.0 mg/kg/injection, schedule: Q01DX001 (ip), vehicle: Klucel (hydroxypropylcellulose) (HPC).
Setting [4] is: dose: 200.0 mg/kg/injection, schedule: Q04DX003 (ip), vehicle: Klucel (hydroxypropylcellulose) (HPC).
Where [5] appears, read: dose: 400.0 mg/kg/injection, schedule: Q01DX001 (ip), vehicle: Klucel (hydroxypropylcellulose) (HPC).
Setting [6] is: dose: 400.0 mg/kg/injection, schedule: Q04DX003 (ip), vehicle: Klucel (hydroxypropylcellulose) (HPC).
Where [7] appears, read: dose: 100.0 mg/kg/injection, schedule: Q01DX009 (ip), vehicle: Klucel (hydroxypropylcellulose) (HPC).
Where [8] appears, read: dose: 200.0 mg/kg/injection, schedule: Q01DX009 (ip), vehicle: Klucel (hydroxypropylcellulose) (HPC).
Setting [9] is: dose: 100.0 mg/kg/injection, schedule: Q04DX003 (ip), vehicle: saline with Tween-80.
[10] abbreviates: dose: 200.0 mg/kg/injection, schedule: Q04DX003 (ip), vehicle: saline with Tween-80.
[11] abbreviates: dose: 400.0 mg/kg/injection, schedule: Q04DX003 (ip), vehicle: saline with Tween-80.
[12] abbreviates: dose: 100.0 mg/kg/injection, schedule: Q01DX001 (ip), vehicle: saline.

Take `CC(=O)Nc1cccc(Cc2ccccc2)c1`: the T/C reads like this: under setting [1], 95 % of control; under setting [2], 100 % of control; under setting [3], 97 % of control; under setting [4], 103 % of control; under setting [5], 97 % of control; under setting [6], 108 % of control.
As to `CC12CCCCCCC1O2` (stereo not drawn), the T/C is 100 % of control (dose: 75.0 mg/kg/injection, schedule: Q01DX001 (ip), vehicle: other); 89 % of control (dose: 150.0 mg/kg/injection, schedule: Q01DX001 (ip), vehicle: other); 95 % of control (dose: 300.0 mg/kg/injection, schedule: Q01DX001 (ip), vehicle: other).
On to `OCC1OC(n2cnc3c(NO)nc(NO)nc32)C(O)C1O` (stereo not drawn), for which the T/C by setting is: (dose: 30.0 mg/kg/injection, schedule: Q01DX009 (ip), vehicle: saline) 151 % of control; (dose: 150.0 mg/kg/injection, schedule: Q01DX001 (ip), vehicle: saline) 115 % of control.
Turning to `COc1cc([N+](=O)[O-])ccc1NC(=O)Oc1ccc(-c2ccccc2)cc1`, the T/C is 95 % of control under setting [7]; 95 % of control under setting [8]; 98 % of control (dose: 400.0 mg/kg/injection, schedule: Q01DX009 (ip), vehicle: Klucel (hydroxypropylcellulose) (HPC)).
As to `O=C(CCCCCCC(=O)C[n+]1ccccc1Br)C[n+]1ccccc1Br`, the T/C (dose: 1.4 mg/kg/injection, schedule: Q04DX003 (ip), vehicle: saline) was 105 % of control; the T/C (dose: 2.8 mg/kg/injection, schedule: Q04DX003 (ip), vehicle: saline) was 100 % of control; the T/C (dose: 5.6 mg/kg/injection, schedule: Q04DX003 (ip), vehicle: saline) was 97 % of control.
Turning to `COc1ccc2c(c1OC)CCN1C3=C(CC(OC(=O)c4ccccc4)CC3)C(=O)CC21` (stereo not drawn), the T/C reads like this: under setting [1], 96 % of control; (dose: 100.0 mg/kg/injection, schedule: Q01DX009 (ip), vehicle: saline sonified) 93 % of control; under setting [3], 94 % of control; (dose: 200.0 mg/kg/injection, schedule: Q01DX009 (ip), vehicle: saline sonified) 95 % of control; under setting [5], 97 % of control; (dose: 400.0 mg/kg/injection, schedule: Q01DX009 (ip), vehicle: saline sonified) 93 % of control.
For `CC1CC2CCC1C2O` (stereo not drawn), the T/C runs as follows: (dose: 37.5 mg/kg/injection, schedule: Q04DX003 (ip), vehicle: saline) 100 % of control; (dose: 75.0 mg/kg/injection, schedule: Q04DX003 (ip), vehicle: saline) 97 % of control; (dose: 150.0 mg/kg/injection, schedule: Q04DX003 (ip), vehicle: saline) 90 % of control.
For `O=C(c1ccc(C(=O)N(C2CCCCC2)C2CCCCC2)cc1)N(C1CCCCC1)C1CCCCC1`, the T/C (dose: 5.0 mg/kg/injection, schedule: Q01DX001 (ip), vehicle: saline) was 105 % of control; the T/C (dose: 10.0 mg/kg/injection, schedule: Q01DX001 (ip), vehicle: saline) was 109 % of control; the T/C (dose: 20.0 mg/kg/injection, schedule: Q01DX001 (ip), vehicle: saline) was 103 % of control; the T/C (dose: 40.0 mg/kg/injection, schedule: Q01DX001 (ip), vehicle: saline) was 101 % of control; the T/C (dose: 80.0 mg/kg/injection, schedule: Q01DX001 (ip), vehicle: saline) is 100 % of control.
As for `C[N+](C)(C)Cc1cccc([N+](=O)[O-])c1`, the T/C runs as follows: (dose: 12.0 mg/kg/injection, schedule: Q01DX009 (ip), vehicle: saline) 90 % of control; (dose: 25.0 mg/kg/injection, schedule: Q01DX009 (ip), vehicle: saline) 92 % of control; (dose: 50.0 mg/kg/injection, schedule: Q01DX001 (ip), vehicle: saline) 98 % of control; (dose: 50.0 mg/kg/injection, schedule: Q01DX009 (ip), vehicle: saline) 93 % of control.
Consider `CC(C)=CCn1cnc2c1c(=O)n(C)c(=O)n2C`, for which the T/C (dose: 50.0 mg/kg/injection, schedule: Q04DX002 (ip), vehicle: Klucel (hydroxypropylcellulose) (HPC)) is 100 % of control; the T/C (dose: 100.0 mg/kg/injection, schedule: Q04DX002 (ip), vehicle: Klucel (hydroxypropylcellulose) (HPC)) is 88 % of control; the T/C (dose: 200.0 mg/kg/injection, schedule: Q04DX002 (ip), vehicle: Klucel (hydroxypropylcellulose) (HPC)) was 96 % of control.
Regarding `CN(C)c1cc2c3c(c1)CCCN3CCC2`, the T/C is, setting by setting: (dose: 6.25 mg/kg/injection, schedule: Q01DX001 (ip), vehicle: saline) 108 % of control; (dose: 12.5 mg/kg/injection, schedule: Q01DX001 (ip), vehicle: saline) 101 % of control.
For the compound `COc1cc(Nc2nc(N)ncc2[N+](=O)[O-])cc(OC)c1OC`, the T/C under setting [9] was 92 % of control, the T/C under setting [10] is 87 % of control and the T/C under setting [11] is 88 % of control.
Turning to `COC(=O)C1(C)COP(=O)(Nc2ccc(OC)cc2)OC1` (stereo not drawn), the T/C is 89 % of control under setting [12] and 89 % of control (dose: 200.0 mg/kg/injection, schedule: Q01DX001 (ip), vehicle: saline).
`CC(=O)Nc1cc2c(cc1[N+](=O)[O-])-c1ccccc1C2O` (stereo not drawn): the T/C (dose: 25.0 mg/kg/injection, schedule: Q04DX003 (ip), vehicle: saline) is 94 % of control; the T/C (dose: 50.0 mg/kg/injection, schedule: Q04DX003 (ip), vehicle: saline) is 100 % of control; the T/C under setting [12] was 87 % of control; the T/C (dose: 100.0 mg/kg/injection, schedule: Q01DX009 (ip), vehicle: saline) was 102 % of control; the T/C under setting [9] was 102 % of control; the T/C (dose: 100.0 mg/kg/injection, schedule: Q04DX003 (ip), vehicle: saline) is 96 % of control. The T/C (dose: 150.0 mg/kg/injection, schedule: Q01DX009 (ip), vehicle: saline) was 92 % of control; the T/C under setting [10] is 101 % of control; the T/C (dose: 225.0 mg/kg/injection, schedule: Q01DX009 (ip), vehicle: saline) is 105 % of control; the T/C under setting [11] is 104 % of control.
Consider `CC1=Nc2cc(C)c(C)cc2N=C(C)C1`, for which the T/C was 96 % of control under setting [7], 93 % of control under setting [2], 98 % of control under setting [8] and 97 % of control under setting [4].
As to `O=C(Nc1ccc(N=Nc2ccccc2)cc1)Nc1cc([N+](=O)[O-])ccc1F`, the T/C by setting is: under setting [2], 86 % of control; under setting [4], 86 % of control; under setting [6], 91 % of control.
For `CCC[Si](Cl)(CCC)CCC`, the T/C was 98 % of control (dose: 18.75 mg/kg/injection, schedule: Q01DX009 (ip), vehicle: acetone); 94 % of control (dose: 37.5 mg/kg/injection, schedule: Q01DX009 (ip), vehicle: acetone); 99 % of control (dose: 37.5 mg/kg/injection, schedule: Q04DX003 (ip), vehicle: acetone); 93 % of control (dose: 75.0 mg/kg/injection, schedule: Q01DX001 (ip), vehicle: acetone); 96 % of control (dose: 75.0 mg/kg/injection, schedule: Q01DX009 (ip), vehicle: acetone); 94 % of control (dose: 75.0 mg/kg/injection, schedule: Q04DX003 (ip), vehicle: acetone). In addition, the T/C reads like this: (dose: 150.0 mg/kg/injection, schedule: Q01DX001 (ip), vehicle: acetone) 101 % of control; (dose: 150.0 mg/kg/injection, schedule: Q04DX003 (ip), vehicle: acetone) 100 % of control; (dose: 300.0 mg/kg/injection, schedule: Q01DX001 (ip), vehicle: acetone) 86 % of control.
In the case of `CN(C)CCO/C(CN(C)C)=C(\C#N)c1ccccc1`, the T/C reads like this: (dose: 15.0 mg/kg/injection, schedule: Q01DX001 (ip), vehicle: carboxymethylcellulose (CMC)) 92 % of control; (dose: 30.0 mg/kg/injection, schedule: Q01DX001 (ip), vehicle: carboxymethylcellulose (CMC)) 95 % of control.
